Measurements from paper PMC12648313, “Enhancing the Efficacy, Utility, and Throughput of the Transcription Block Survival Peptide Library Screening Platform” (JACS Au, 2025).

How the values were obtained:
[1] = target: T1, CREB1-CRE complex (Homo sapiens, UniProt P16220); assay: FP antagonism assay CREB1-CRE; assay type: biochemical; conditions: FP IC50, CREB1-CRE vs ATF2-CRE
T1 construct: Ala283 to Asp341
T1 sequence (P16220 283-341 isoform P16220-1): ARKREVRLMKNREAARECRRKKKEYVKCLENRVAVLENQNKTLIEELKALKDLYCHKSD
Description: Fluorescence polarization (FP) was next utilized to confirm that ATF2W binding induces the intended antagonism of the ATF2-CRE interaction. […] To assess ATF2W antagonism, 625 nM ATF2, which corresponded to 80% of the maximum DNA binding, was incubated with CRE DNA (10 nM) and varied concentrations of ATF2W (29 nM-12 μM). […] This represents a ∼ 3-fold selectivity for ATF2. […] As the peptide library was designed using established coiled coil interaction rules, it was expected that many sequences would bind the target.
(DMF). Deprotection was performed by addition of 0.75 mL 30% pyrrolidine into the coupling reaction. Peptides were acetylated at the N-terminus by a final reaction with 3x acetic anhydride, 4.5x diisopropylethylamine in DMF for one hour at room temperature. Incubation in a cleavage mixture (95% TFA, 2.5% triisopropylsilane, 2.5% H2O, 10 mL) for 4 h at room temperature cleaved the peptide from the resin and removed side chain protecting groups.
2.5% DODT was added to the cleavage cocktail for ATF2. The resin was removed by filtration and cleaved peptides were precipitated in diethyl ether at -80°C and centrifuged.
This pellet was washed a further four times with diethyl ether before it was dried overnight at room temperature. […]

[2] = target: T2, ATF2 (Homo sapiens, UniProt P15336); assay: Circular dichroism spectra; assay type: binding; conditions: pH 7.4
T2 construct: human ATF2 bZIP domain spans from Asp352 to Gln410; made in house; host or cells: chemical synthesis (Fmoc solid-phase peptide synthesis), no expression host
T2 sequence (P15336 352-410): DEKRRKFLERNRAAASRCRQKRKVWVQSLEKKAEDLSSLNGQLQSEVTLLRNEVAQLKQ
Excerpt: (§1) removed before peptide concentration determination.
(§2) Peptide samples were suspended in 20

[3] = tested on: DLX5/H-Box complex; assay: FP antagonism assay DLX5/H-Box; assay type: biochemical; conditions: FAM-H-Box DNA, over the concentration range tested
[4] = target: T2, ATF2; assay: Isothermal titration calorimetry; assay type: binding; conditions: 20 °C, pH 7.4, average of three independent experiments ± SD
Excerpt: 5 Biophysical characterization of the ATF2-ATF2W interaction. (A) CD spectra of ATF2 and ATF2W indicating an increase in helicity upon mixture of the two components, indicative of the formation of a heterodimeric coiled coil. (B) CD thermal denaturation experiment indicates a T m shift upon mixture of ATF2/ATF2W, supporting the formation of a stable heterodimer. The “average” CD trace in A and B represents an averaged value of the two unbound components which would be the trace for no interaction. (C) ITC data for ATF2W (50 μM) titrated into ATF2 (5 μM) at 20 °C. The raw power compensation plot is shown in the upper graph and the integrated data points and single site model fitted line are shown in the lower graph. […] ATF2W is selective for ATF2, with a ∼ 3-fold reduction in antagonism for CREB1/CRE and cJun/TRE despite high structural and sequence homology. […]
as §1, §2
Post-melt scans at 20°C confirmed the
Sequential 2 µL injections of ATF2W (50 µM)
Data from a control experiment whereby […]
errors are given as one standard deviation.
Fluorescence polarisation: Fluorescence polarisation was measured in a CLARIOstar

**Q.** With “Ac-LEQQLEELAQENEELEKEAAELQQQIARLKNEVAKLENENKTLDREIKALQREYSHKSD-NH2 [ATF2W]” as the substance, how does the “fold selectivity for ATF2 over CREB1” value [1] read?
**A.** ~3 -fold

**Q.** And the “increase in helicity upon mixing, relative to the average” value ([2]; 1:1 mixture with ATF2 (5 μM each) vs average of individual components (10 μM each), 20 mM potassium phosphate, 150 mM potassium fluoride, 10 mM TCEP.HCl, 222 nm)?
**A.** 32%

**Q.** And the “222/208 ratio of heterodimer spectrum” value ([2]; 1:1 mixture with ATF2 (5 μM each))?
**A.** 0.8

**Q.** And the “antagonism of DLX5/H-Box interaction” value [3]?
**A.** minimal antagonism

**Q.** What about the Kd ([4]; ATF2W (50 μM) titrated into ATF2 (5 μM), 50 mM potassium phosphate, 150 mM NaCl, 10 mM TCEP, one-site model) of the same substance?
**A.** 114 ± 21 nM

**Q.** What about the “-TΔS” value ([4]; ITC) of the same substance?
**A.** 40 ± 4 kJ mol^–1

**Q.** What about the “N (stoichiometry)” value ([4]; ITC) of the same substance?
**A.** 0.99 ± 0.01

**Q.** And the ΔH ([4]; ITC)?
**A.** −79 ± 3 kJ mol^–1
